Several values for one entry are separate records, joined by “and”; a condition that tells them apart may be missing. Equal values may be shown once. One block for each molecule: values may come before it.
Assays:
Format in all cases: biochemical
BRISC [1] = target: T1, BRISC (Homo sapiens, UniProt P46736+Q15018+Q9NXR7); assay: BRISC DUB activity assay (IQF K63-linked diubiquitin); conditions: for Mean V0: Fig. 1d
T1 construct: made in house; host or cells: Spodoptera frugiperda (Sf9) insect cells, MultiBac
Protocol: (§1) IQF assays were performed in DUB reaction buffer containing 50 mM HEPES–NaOH pH 7.0, 100 mM NaCl, 0.1 mg ml^−1 BSA, 1 mM DTT and 0.03% v/v Brij-35. […] The final concentration of BRISC WT, all BRISC mutants, HsBRISCΔLoop, MmBRISC and DrBRISCΔNΔC was 1 nM. Other enzymes were tested at the following concentrations: 5 nM ARISC (FL), 10 nM CfBRISCΔNΔC, 250 nM AMSH* (ref. [43]), 500 nM USP2 and 1 μM trypsin (Sigma, 9002-07-7). For Michaelis–Menten experiments, 1 nM BRISC with 0–1 μM IQF K63-linked diubiquitin substrate was used. Michaelis–Menten analyses and Lineweaver–Burk plots were calculated using GraphPad Prism (version 9.0).
(§2) To assess enzymatic activity, BRISC complexes were diluted to concentrations between 1 nM and 50 nM. […] Then, 20-μl enzyme reactions were carried out in 384-well black flat-bottom low-flange plates (Corning, 35373). DUB activity was measured using IQF K63-linked diubiquitin (LifeSensors, DU6303) at 50 nM. Cleaved diubiquitin was monitored by measuring fluorescence intensity (excitation, 544 nm; emission, 575 nm; dichroic mirror, 560 nm). Fluorescence intensity was measured every minute for 30 min at 30 °C. Fluorescence intensity units were plotted against time to generate a linear reaction progress curve, where the initial velocity (V0) corresponds to the gradient of the curve (typically achieved within 15 min). IC50 values were calculated using the GraphPad Prism (version 9.0) built-in dose–response equation for inhibitor concentration versus response (variable slope).

BRISC [2] = target: T1, BRISC; assay: Compound library screening and hit validation (IQF diubiquitin, 1 nM BRISC); conditions: for BRISC, normalised activity (Ext. 1a): two replicate columns
Protocol: (§3) Assays were performed in 384-well black flat-bottom low-flange plates (Corning, 35373) in buffer containing 50 mM HEPES–NaOH pH 7.0, 100 mM NaCl, 1 mg ml^−1 BSA, 1 mM DTT and 0.03% v/v Brij-35. Then, 10 μl of twofold concentrated enzyme stock was dispensed, followed by transfer of 200 nl of compounds (1 mM stock) using a 384-pin tool and a 15-min incubation at room temperature. Then, 10 μl of twofold concentrated substrate stock was added and the reaction was monitored by measuring fluorescence intensity (excitation, 540 nm; emission, 580 nm) after 20-min incubation at room temperature and ~50% of substrate was consumed. Orthogonal assays for verification of H20 and P12 hit compounds using USP2 (100 nM) and trypsin (125 nM) were performed in identical conditions.

USP2 = target: T2, USP2 (Homo sapiens, UniProt O75604); assay: USP2 IQF diubiquitin selectivity assay; conditions: for USP2, normalised activity (Ext. 1a): two replicate columns
T2 construct: His (N, cleaved yes); host or cells: Escherichia coli BL21(DE3)
T2 sequence (O75604 258-605 limits assumed): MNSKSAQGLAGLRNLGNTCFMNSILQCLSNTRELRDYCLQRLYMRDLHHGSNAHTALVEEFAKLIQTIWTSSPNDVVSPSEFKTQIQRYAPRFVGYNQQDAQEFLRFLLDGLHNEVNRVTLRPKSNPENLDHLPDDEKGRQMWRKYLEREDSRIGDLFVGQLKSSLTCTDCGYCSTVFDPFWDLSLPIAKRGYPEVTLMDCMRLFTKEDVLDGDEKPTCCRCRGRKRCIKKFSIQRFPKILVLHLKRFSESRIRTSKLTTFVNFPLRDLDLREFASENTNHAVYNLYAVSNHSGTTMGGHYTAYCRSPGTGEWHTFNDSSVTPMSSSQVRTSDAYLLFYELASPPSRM
Protocol: as §3, with “BRISC DUB activity was measured at room temperature using 1 nM BRISC and 500 nM IQF diubiquitin K63 substrate (LifeSensors, DU6303) in the presence of DMSO and compounds at 10 μM (final concentrations). Assays” for “Assays”
as §1, §2

trypsin = assay: Trypsin IQF diubiquitin selectivity assay; conditions: for TRYPSIN, normalised activity (Ext. 1a): two replicate columns
Protocol: as §3, with “BRISC DUB activity was measured at room temperature using 1 nM BRISC and 500 nM IQF diubiquitin K63 substrate (LifeSensors, DU6303) in the presence of DMSO and compounds at 10 μM (final concentrations). Assays” for “Assays”
as §1, §2

[3] = log [compound (μM)] 0.1938, listed as P12
[4] = log [compound (μM)] 0.4949, listed as P12
[5] = log [compound (μM)] 0.7959, listed as P12
[6] = log [compound (μM)] 1.0969, listed as P12
[7] = log [compound (μM)] 1.3979, listed as P12
[8] = log [compound (μM)] 1.6990, listed as P12
[9] = log [compound (μM)] 2.0000, listed as P12
[10] = log [compound (μM)] -0.1072, listed as P12
[11] = log [compound (μM)] -0.4082, listed as P12
[12] = log [compound (μM)] -0.7093, listed as P12
[13] = log [compound (μM)] -1.0103, listed as P12
[14] = log [compound (μM)] -2.0103, normalisation point

- IC50 (BRISC [1]; IQF K63-linked diubiquitin substrate, read-out: IC50, inhibition of BRISC DUB activity): 21 µM
- normalised V0, Mean (BRISC [1]; inhibitor 0.0268861 μM): 1
- normalised V0, Mean (BRISC [1]; inhibitor 0.268861 μM): 1.082
- normalised V0, Mean (BRISC [1]; inhibitor 0.806584 μM): 1.109
- normalised V0, Mean (BRISC [1]; inhibitor 2.41975 μM): 1.0044
- normalised V0, Mean (BRISC [1]; inhibitor 7.25926 μM): 1.002
- normalised V0, Mean (BRISC [1]; inhibitor 21.7778 μM): 0.6484
- normalised V0, Mean (BRISC [1]; inhibitor 65.3333 μM): 0.3437
- normalised V0, Mean (BRISC [1]; inhibitor 196 μM): 0.2841
Compound: C[N+]1(C)CCC(NC(=O)c2nn(C(=O)c3c(Cl)cccc3Cl)cc2NC(=O)c2c(Cl)cccc2Cl)CC1 [FX-25-2]

- inhibition of BRISC, hit validation dose response (BRISC [2]; BRISC 1 nM): inhibited
- BRISC, normalised activity (Ext. 1a) (BRISC [2]; [3]): 0.9184 and 0.9164
- BRISC, normalised activity (Ext. 1a) (BRISC [2]; [4]): 0.8260 and 0.8472
- BRISC, normalised activity (Ext. 1a) (BRISC [2]; [5]): 0.7220 and 0.6802
- BRISC, normalised activity (Ext. 1a) (BRISC [2]; [6]): 0.5475 and 0.6138
- BRISC, normalised activity (Ext. 1a) (BRISC [2]; [7]): 0.4196 and 0.4274
- BRISC, normalised activity (Ext. 1a) (BRISC [2]; [8]): 0.2277 and 0.3017
- BRISC, normalised activity (Ext. 1a) (BRISC [2]; [9]): 0.1348 and 0.1662
- BRISC, normalised activity (Ext. 1a) (BRISC [2]; [10]): 0.9841 and 0.9959
- BRISC, normalised activity (Ext. 1a) (BRISC [2]; [11]): 1.0145 and 0.9950
- BRISC, normalised activity (Ext. 1a) (BRISC [2]; [12]): 0.9264 and 1.0022
- BRISC, normalised activity (Ext. 1a) (BRISC [2]; [13]): 0.9725 and 0.9468
- BRISC, normalised activity (Ext. 1a) (BRISC [2]; [14]): 1.0000
- inhibition of USP2 (USP2; IQF K63 diubiquitin substrate): inhibited
- USP2, normalised activity (Ext. 1a) (USP2; [3]): 0.9446 and 0.9072
- USP2, normalised activity (Ext. 1a) (USP2; [4]): 0.7366 and 0.8095
- USP2, normalised activity (Ext. 1a) (USP2; [5]): 0.5989 and 0.5952
- USP2, normalised activity (Ext. 1a) (USP2; [6]): 0.4578 and 0.4777
- USP2, normalised activity (Ext. 1a) (USP2; [7]): 0.2821 and 0.3159
- USP2, normalised activity (Ext. 1a) (USP2; [8]): 0.1157 and 0.1340
- USP2, normalised activity (Ext. 1a) (USP2; [9]): 0.0697 and 0.0548
- USP2, normalised activity (Ext. 1a) (USP2; [10]): 0.9974 and 0.9861
- USP2, normalised activity (Ext. 1a) (USP2; [11]): 1.0145 and 0.9995
- USP2, normalised activity (Ext. 1a) (USP2; [12]): 1.0193 and 1.0736
- USP2, normalised activity (Ext. 1a) (USP2; [13]): 0.9978 and 1.0361
- USP2, normalised activity (Ext. 1a) (USP2; [14]): 1.0000
Compound: Nc1ccc(C(=O)Nc2cccc(-c3nc(N4CCOCC4)c4oc5ncccc5c4n3)c2)cn1 [YM201636, reference compound]
- inhibition of trypsin (trypsin; IQF K63 diubiquitin substrate): inhibited
- TRYPSIN, normalised activity (Ext. 1a) (trypsin; [3]): 0.9684 and 0.9837
- TRYPSIN, normalised activity (Ext. 1a) (trypsin; [4]): 0.8434 and 0.8923
- TRYPSIN, normalised activity (Ext. 1a) (trypsin; [5]): 0.6993 and 0.7044
- TRYPSIN, normalised activity (Ext. 1a) (trypsin; [6]): 0.6731 and 0.7139
- TRYPSIN, normalised activity (Ext. 1a) (trypsin; [7]): 0.4990 and 0.5130
- TRYPSIN, normalised activity (Ext. 1a) (trypsin; [8]): 0.3403 and 0.4535
- TRYPSIN, normalised activity (Ext. 1a) (trypsin; [9]): 0.3318 and 0.3209
- TRYPSIN, normalised activity (Ext. 1a) (trypsin; [10]): 1.0347 and 0.9747
- TRYPSIN, normalised activity (Ext. 1a) (trypsin; [11]): 1.0259 and 0.9266
- TRYPSIN, normalised activity (Ext. 1a) (trypsin; [12]): 0.9472 and 0.9474
- TRYPSIN, normalised activity (Ext. 1a) (trypsin; [13]): 0.9224 and 0.9184
- TRYPSIN, normalised activity (Ext. 1a) (trypsin; [14]): 1.0000

- Mean V0 (BRISC [1]; log[compound (μM)] 0.1938): 0.5385
- Mean V0 (BRISC [1]; log[compound (μM)] 0.4949): 0.3840
- Mean V0 (BRISC [1]; log[compound (μM)] 0.7959): 0.2986
- Mean V0 (BRISC [1]; log[compound (μM)] 1.0969): 0.2014
- Mean V0 (BRISC [1]; log[compound (μM)] 1.3979): 0.1684
- Mean V0 (BRISC [1]; log[compound (μM)] 1.6990): 0.1492
- Mean V0 (BRISC [1]; log[compound (μM)] 2.0000): 0.0500
- Mean V0 (BRISC [1]; log[compound (μM)] 2.3010): 0.0048
- Mean V0 (BRISC [1]; log[compound (μM)] -0.1072): 0.7414
- Mean V0 (BRISC [1]; log[compound (μM)] -1.1072): 0.9992
- Mean V0 (BRISC [1]; log[compound (μM)] -2.0000): 1.0000
Compound: O=C(NC1CCNCC1)c1nn(C(=O)c2c(Cl)cccc2Cl)cc1NC(=O)c1c(Cl)cccc1Cl [JMS175-2]

Source: publication PMC7617869, “Molecular glues that inhibit deubiquitylase activity and inflammatory signaling” (Nature Structural & Molecular Biology, 2025)
